Data published in publication PMC8541513, “Stereoselective Synthesis of the Di-Spirooxindole Analogs Based Oxindole and Cyclohexanone Moieties as Potential Anticancer Agents” (Molecules, 2021).

Key:
Human Fibroblast BJ = assay: MTT cytotoxicity assay against BJ human fibroblast cells; format: cell-based; details: 48 h, 1-30 µM, ± SD of three independent experiments
Protocol: (§1) Cytotoxicity against BJ human fibroblast cells and cytotoxicity against PC3, HeLa, MCF-7, and MDA-MB231 cancer cell lines were evaluated by following the procedure as described in the literature (Supplementary Materials). […]
(§2) The Biological Activity Assays Protocols
(§3) Cytotoxic activity of compounds was evaluated in 96-well flat-bottomed micro plates by using the standard MTT (3-[4, 5-dimethylthiazole-2-yl]-2, 5-diphenyl-tetrazolium bromide) colorimetric assay.
(§4) For this purpose, PC3 cells (Prostate Cancer) / BJ Human fibroblast cells / HeLa cells (Cervical Cancer) / MCF-7 and MDA-MB-231 breast cancer cell line were cultured in Dulbecco’s Modified Eagle Medium, supplemented with 5% of fetal bovine serum (FBS), 100 IU/ml of penicillin and 100 µg/ml of streptomycin in 75 cm2 flasks, and kept in 5% CO2 incubator at 37 °C. Exponentially growing cells were harvested, counted with haemocytometer and diluted with a particular medium. Cell culture with the concentration of 1x10^5 cells/ml was prepared and introduced (100 µL/well) into 96-well plates. After overnight incubation, medium was removed and 200 µL of fresh medium was added with different concentrations of compounds (1-30µM). After 48 hrs, 200 µL MTT (0.5 mg/ml) was added to each well and incubated further for 4 hrs. Subsequently, 100µL of DMSO was added to each well. The extent of MTT reduction to formazan within cells was calculated by measuring the absorbance at 570 nm, using a micro plate reader (Spectra Max plus, Molecular Devices, CA, USA). The cytotoxicity was recorded […]
(§5) (1 picture or pasted object on this page, not shown here) […]
(§6) as concentration causing 50% growth inhibition (IC50) for PC3 cells. The percent inhibition was calculated by using the following formula:
(§7) % inhibition = 100-((mean of O.D of test compound – mean of O.D of negative control)/ (mean of O.D of positive control – mean of O.D of negative control)*100).
(§8) The results (% inhibition) were processed by using Soft- Max Pro software (Molecular Device, USA).
(§9) Standard drug used in the MTT assay was doxorubicin. […]

Cervical HeLa = assay: MTT anticancer assay, cervical HeLa cells; format: cell-based; details: 48 h, 1-30 µM, ± SD of three independent experiments; for IC50: Homo sapiens, HeLa
Protocol: (§10) The antiproliferative activity against four cancer cell lines, including prostate PC3, cervical HeLa, and triple-negative breast cancer (MCF-7 and MDA-MB231) was evaluated by MTT assay, while standard drug doxorubicin was used as a reference for comparison (Table 1).
as §1, §2, §3, §4, §5, §6, §7, §8, §9

Breast MCF-7 = assay: MTT anticancer assay, breast MCF-7 cells; format: cell-based; parameters: key to IC50, Breast MCF-7: NA means that the tested compound did not show anticancer activity at 30 µM; NS: Not soluble; details: 1-30 µM, ± SD of three independent experiments; for IC50: Homo sapiens, MCF7, 48 h
Protocol: as §10, §1, §2, §3, §4, §5, §6, §7, §8, §9

Breast MDA-MB231 = assay: MTT anticancer assay, breast MDA-MB231 cells; format: cell-based; parameters: key to IC50, Breast MDA-MB231: NA means that the tested compound did not show anticancer activity at 30 µM; NS: Not soluble; details: 1-30 µM, ± SD of three independent experiments; for IC50: Homo sapiens, MDA-MB-231, 48 h; for IC50, Breast MDA-MB231: 48 h
Protocol: as §10, §1, §2, §3, §4, §5, §6, §7, §8, §9

Prostate PC3 = assay: MTT anticancer assay, prostate PC3 cells; format: cell-based; details: 1-30 µM, ± SD of three independent experiments; for IC50: Homo sapiens, PC-3, 48 h
Protocol: as §10, §1, §2, §3, §4, §5, §6, §7, §8, §9

O=C1/C(=C/c2ccccc2)CCC[C@@]12[C@H](c1ccccc1)[C@H]1C[C@@H]3CCCC[C@@H]3N1[C@]21C(=O)Nc2ccccc21 [Compound 4a, (1. S,1′S,3′S,4a′S,8a′S,9a′R)-3-((E)-Benzylidene)-1′-phenyl-4a′,5′,6′,7′,8′,8a′,9′,9a′-octahydro-1′H-dispiro[cyclohexane-1,2′-pyrrolo[1,2-a]indole-3′,3″-indoline]-2,2″-dione]
IC50 (Human Fibroblast BJ): > 30 µM | IC50 (Cervical HeLa): 7.1 ± 0.2 µM | IC50 (Breast MCF-7): 25 ± 0.57 µM | melting point: 70 to 71 °C | IC50 (Breast MDA-MB231): 19.5 ± 0.56 µM | IC50 (Prostate PC3): 24.1 ± 1.1 µM

O=C1/C(=C/c2ccccc2)CCC[C@@]12[C@H](c1ccccc1)[C@H]1C[C@@H]3CCCC[C@@H]3N1[C@]21C(=O)Nc2cc(Cl)ccc21 [Compound 4b, (1. S,1′S,3′S,4a′S,8a′S,9a′R)-3-((E)-Benzylidene)-6″-chloro-1′-phenyl-4a′,5′,6′,7′,8′,8a′,9′,9a′-octahydro-1′H-dispiro[cyclohexane-1,2′-pyrrolo[1,2-a]indole-3′,3″-indoline]-2,2″-dione]
IC50 (Human Fibroblast BJ): > 30 µM | IC50 (Cervical HeLa): > 30 µM | IC50 (Breast MCF-7): 27.7 ± 0.59 µM | IC50 (Breast MDA-MB231): 24.08 ± 0.02 µM | IC50 (Prostate PC3): 3.7 ± 1 µM

O=C1/C(=C/c2ccccc2)CCC[C@@]12[C@H](c1ccccc1)[C@H]1C[C@@H]3CCCC[C@@H]3N1[C@]21C(=O)Nc2ccc(F)cc21 [Compound 4c, (1. S,1′S,3′S,4a′S,8a′S,9a′R)-3-((E)-Benzylidene)-5″-fluoro-1′-phenyl-4a′,5′,6′,7′,8′,8a′,9′,9a′-octahydro-1′H-dispiro[cyclohexane-1,2′-pyrrolo[1,2-a]indole-3′,3″-indoline]-2,2″-dione]
IC50 (Human Fibroblast BJ): > 30 µM | IC50 (Cervical HeLa): > 30 µM | IC50 (Breast MCF-7): 27.8 ± 1.02 µM | melting point: 70 to 71 °C | IC50 (Breast MDA-MB231): 20.6 ± 2.16 µM | IC50 (Prostate PC3): 17.9 ± 0.2 µM

O=C1/C(=C/c2ccccc2)CCC[C@@]12[C@H](c1ccccc1)[C@H]1C[C@@H]3CCCC[C@@H]3N1[C@]21C(=O)Nc2ccc([N+](=O)[O-])cc21 [Compound 4d, (1. S,1′S,3′S,4a′S,8a′S,9a′R)-3-((E)-Benzylidene)-5″-nitro-1′-phenyl-4a′,5′,6′,7′,8′,8a′,9′,9a′-octahydro-1′H-dispiro[cyclohexane-1,2′-pyrrolo[1,2-a]indole-3′,3″-indoline]-2,2″-dione]
IC50 (Human Fibroblast BJ): > 30 µM | IC50 (Cervical HeLa): > 30 µM | IC50 (Breast MCF-7): > 30 µM | melting point: 111 to 122 °C | IC50 (Breast MDA-MB231): > 30 µM | IC50 (Prostate PC3): 29.8 ± 0.1 µM

COc1ccc2c(c1)[C@]1(C(=O)N2)N2[C@H](C[C@@H]3CCCC[C@@H]32)[C@@H](c2ccccc2)[C@@]12CCC/C(=C\c1ccccc1)C2=O [Compound 4e, (1. S,1′S,3′S,4a′S,8a′S,9a′R)-3-((E)-Benzylidene)-5″-methoxy-1′-phenyl-4a′,5′,6′,7′,8′,8a′,9′,9a′-octahydro-1′H-dispiro[cyclohexane-1,2′-pyrrolo[1,2-a]indole-3′,3″-indoline]-2,2″-dione]
IC50 (Human Fibroblast BJ): > 30 µM | IC50 (Cervical HeLa): 26.5 ± 0.04 µM | IC50 (Breast MCF-7): > 30 µM | melting point: 111 to 122 °C | IC50 (Breast MDA-MB231): > 30 µM | IC50 (Prostate PC3): 19.6 ± 1.2 µM

O=C1/C(=C/c2ccc(Br)cc2)CCC[C@@]12[C@H](c1ccc(Br)cc1)[C@H]1C[C@@H]3CCCC[C@@H]3N1[C@]21C(=O)Nc2cc(Cl)ccc21 [Compound 4f, (1. S,1′S,3′S,4a′S,8a′S,9a′R)-3-((E)-4-Bromobenzylidene)-1′-(4-bromophenyl)-6″-chloro-4a′,5′,6′,7′,8′,8a′,9′,9a′-octahydro-1′H-dispiro[cyclohexane-1,2′-pyrrolo[1,2-a]indole-3′,3″-indoline]-2,2″-dione]
IC50 (Human Fibroblast BJ): > 30 µM | IC50 (Cervical HeLa): > 30 µM | IC50, Breast MCF-7 (Breast MCF-7; 48 h): NS ^c | melting point: 97 to 98 °C | IC50, Breast MDA-MB231 (Breast MDA-MB231): NS | IC50, Prostate PC3 (Prostate PC3; 48 h): inactive | IC50 (Prostate PC3): > 30 µM

O=C1/C(=C/c2ccc(Br)cc2)CCC[C@@]12[C@H](c1ccc(Br)cc1)[C@H]1C[C@@H]3CCCC[C@@H]3N1[C@]21C(=O)Nc2ccc([N+](=O)[O-])cc21 [Compound 4g, (1. S,1′S,3′S,4a′S,8a′S,9a′R)-3-((E)-4-bromobenzylidene)-1′-(4-bromophenyl)-5″-nitro-4a′,5′,6′,7′,8′,8a′,9′,9a′-octahydro-1′H-dispiro[cyclohexane-1,2′-pyrrolo[1,2-a]indole-3′,3″-indoline]-2,2″-dione]
IC50 (Human Fibroblast BJ): 21.7 ± 0.2 µM | IC50 (Cervical HeLa): > 30 µM | IC50 (Breast MCF-7): > 30 µM | melting point: 125 to 126 °C | IC50, Breast MDA-MB231 (Breast MDA-MB231): NS | IC50 (Prostate PC3): 14.3 ± 1 µM

O=C1/C(=C/c2cccc(F)c2)CCC[C@@]12[C@H](c1cccc(F)c1)[C@H]1C[C@@H]3CCCC[C@@H]3N1[C@]21C(=O)Nc2cc(Cl)ccc21 [Compound 4h, (1. S,1′S,3′S,4a′S,8a′S,9a′R)-6″-Chloro-3-((E)-3-fluorobenzylidene)-1′-(3-fluorophenyl)-4a′,5′,6′,7′,8′,8a′,9′,9a′-octahydro-1′H-dispiro[cyclohexane-1,2′-pyrrolo[1,2-a]indole-3′,3″-indoline]-2,2″-dione]
IC50 (Human Fibroblast BJ): > 30 µM | IC50 (Cervical HeLa): > 30 µM | IC50 (Breast MCF-7): > 30 µM | melting point: 83 to 84 °C | IC50 (Breast MDA-MB231): 14.43 ± 0.09 µM | IC50 (Prostate PC3): > 30 µM

O=C1/C(=C/c2cccc(F)c2)CCC[C@@]12[C@H](c1cccc(F)c1)[C@H]1C[C@@H]3CCCC[C@@H]3N1[C@]21C(=O)Nc2ccc([N+](=O)[O-])cc21 [Compound 4i, (1. S,1′S,3′S,4a′S,8a′S,9a′R)-3-((E)-3-Fluorobenzylidene)-1′-(3-fluorophenyl)-5″-nitro-4a′,5′,6′,7′,8′,8a′,9′,9a′-octahydro-1′H-dispiro[cyclohexane-1,2′-pyrrolo[1,2-a]indole-3′,3″-indoline]-2,2″-dione]
IC50 (Human Fibroblast BJ): > 30 µM | IC50 (Cervical HeLa): > 30 µM | IC50 (Breast MCF-7): > 30 µM | melting point: 107 to 108 °C | IC50 (Breast MDA-MB231): 7.63 ± 0.08 µM | IC50 (Prostate PC3): > 30 µM

COc1ccc2c(c1)[C@]1(C(=O)N2)N2[C@H](C[C@@H]3CCCC[C@@H]32)[C@@H](c2cccc(F)c2)[C@@]12CCC/C(=C\c1cccc(F)c1)C2=O [Compound 4j, (1. S,1′S,3′S,4a′S,8a′S,9a′R)-3-((E)-3-Fluorobenzylidene)-1′-(3-fluorophenyl)-5″-methoxy-4a′,5′,6′,7′,8′,8a′,9′,9a′-octahydro-1′H-dispiro[cyclohexane-1,2′-pyrrolo[1,2-a]indole-3′,3″-indoline]-2,2″-dione]
IC50 (Human Fibroblast BJ): > 30 µM | IC50 (Cervical HeLa): 11.9 ± 0.04 µM | IC50 (Breast MCF-7): > 30 µM | melting point: 92 to 93 °C | IC50 (Breast MDA-MB231): 10.5 ± 0.71 µM | IC50 (Prostate PC3): > 30 µM

O=C1/C(=C/c2cccc(Br)c2)CCC[C@@]12[C@H](c1cccc(Br)c1)[C@H]1C[C@@H]3CCCC[C@@H]3N1[C@]21C(=O)Nc2cc(Cl)ccc21 [Compound 4k, (1. S,1′S,3′S,4a′S,8a′S,9a′R)-3-((E)-3-Bromobenzylidene)-1′-(3-bromophenyl)-6″-chloro-4a′,5′,6′,7′,8′,8a′,9′,9a′-octahydro-1′H-dispiro[cyclohexane-1,2′-pyrrolo[1,2-a]indole-3′,3″-indoline]-2,2″-dione]
IC50 (Human Fibroblast BJ): > 30 µM | IC50, Cervical HeLa (Cervical HeLa): inactive | IC50 (Cervical HeLa): > 30 µM | IC50 (Breast MCF-7): > 30 µM | melting point: 115 to 116 °C | IC50 (Breast MDA-MB231): > 30 µM | IC50 (Prostate PC3): > 30 µM

O=C1/C(=C/c2ccc(F)cc2)CCC[C@@]12[C@H](c1ccc(F)cc1)[C@H]1C[C@@H]3CCCC[C@@H]3N1[C@]21C(=O)Nc2cc(Cl)ccc21 [Compound 4l, (1. S,1′S,3′S,4a′S,8a′S,9a′R)-6″-Chloro-3-((E)-4-fluorobenzylidene)-1′-(4-fluorophenyl)-4a′,5′,6′,7′,8′,8a′,9′,9a′-octahydro-1′H-dispiro[cyclohexane-1,2′-pyrrolo[1,2-a]indole-3′,3″-indoline]-2,2″-dione]
IC50 (Human Fibroblast BJ): > 30 µM | IC50 (Cervical HeLa): 7.2 ± 0.5 µM | IC50 (Breast MCF-7): > 30 µM | melting point: 96 to 97 °C | IC50 (Breast MDA-MB231): 14.45 ± 0.08 µM | IC50 (Prostate PC3): > 30 µM
